The values that follow are results of earlier work, collected in patent US11351128B1, “Pharmaceutical compositions and methods of administration” (priority 2021, dated 2022).

On to `CCN(CC)C(=S)SSC(=S)N(CC)CC` [Disulfiram, tetraethyldisulfane-carbothioamide or 1-(diethylthiocarbamoyl-disulfanyl)-N,N-diethyl-methanethioamide], for which the “soluble in water to the extent of” value is recorded as “about 20 mg in 100 ml”.
